Structures are written as SMILES. In brackets after ≈: the same amount, converted by molar mass.

In one assay the test system is E. faecium 1 231 410. In words: microbe, parasite or virus in culture. Particulars: Enterococcus faecium, 1231410, read-out: Vancomycin MIC. It is filed as cell-based, Enterococcus faecium.
In the next assay the test system is E. faecium 1 231 502. The experiment in a line: microbe, parasite or virus in culture. The following applies: Enterococcus faecium, 1231502, read-out: Vancomycin MIC. The format is cell-based, Enterococcus faecium.

Protocol for E. faecium 1 231 410: (§1) The MIC of vancomycin was determined by the microdilution method described in the guidelines of the European Committee on Antimicrobial Susceptibility Testing (EUCAST 2024, v14.0 Breakpoint Tables).[58] For enterococci, GM17 medium was used instead of CAMH medium since enterococci cannot degrade starch, the main carbohydrate of MH medium. 2-fold serial dilutions of the tested antibiotic were performed to obtain concentrations ranging from 0.5 to 512 μg/mL. LP were then added to the wells at the desired concentration. The medium was inoculated with a final inoculum of 5 × 10^5 CFU/mL. The MIC is the lowest concentration that prevents visible in vitro growth.
Protocol for E. faecium 1 231 502: as §1

Turning to `CN[C@H](CC(C)C)C(=O)N[C@H]1C(=O)N[C@@H](CC(N)=O)C(=O)N[C@H]2C(=O)N[C@H]3C(=O)N[C@H](C(=O)N[C@H](C(=O)O)c4cc(O)cc(O)c4-c4cc3ccc4O)[C@H](O)c3ccc(c(Cl)c3)Oc3cc2cc(c3O[C@@H]2O[C@H](CO)[C@@H](O)[C@H](O)[C@H]2O[C@H]2C[C@](C)(N)[C@H](O)[C@H](C)O2)Oc2ccc(cc2Cl)[C@H]1O` [Vancomycin], the MIC in the assay on E. faecium 1 231 410 and in the assay with E. faecium 1 231 502 was 128 µg/mL (≈ 88.3 µM) throughout.

Values taken from paper PMC11872507, “Lasso peptides sviceucin and siamycin I exhibit anti-virulence activity and restore vancomycin effectiveness in vancomycin-resistant pathogens” (iScience, 2025).
